In experiment [1] the target is T1, c-kit (Homo sapiens, UniProt P10721).
T1 construct: MO7e (human megakaryocytic leukemia cell line) which had been arrested for 20 hr; endogenous in cells; host or cells: MO7e human megakaryocytic leukemia cell line
The experiment can be described thus: Inhibitory activity against c-kit autophosphorylation (MO7e cells, h-SCF). The class given is cell-based. The following applies: MO7e cells, h-SCF 50 ng/ml; read-out: c-kit IC50. A digest of the protocol: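 In this cellular autophosphorylation assay, compound-treated MO7e cells (1 hr) were challenged with human stem cell factor at 50 ng/ml for 5 min; detection relied on PY-20 capture and anti-c-kit/HRP immunodetection at 450 nm.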

Experiment [2] deals with T2, PDGF-Ra (Homo sapiens, UniProt P16234).
T2 construct: host or cells: G-292 human osteosarcoma cells
The experiment can be described thus: Inhibitory activity against PDGF-Ra phosphorylation by PDGF-AA stimulation using G292. It counts as cell-based. The note with it: Pharmacological Test Example 1; > means inhibition at indicated concentration not more than 50%, < and << not less than 50%; read-out: PDGF (E) IC50. The gist of the method:
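In G-292 osteosarcoma cells kept overnight in 0.1% FBS, compound exposure (1 hr, 37 °C) preceded PDGF-AA stimulation at 50 ng/ml for 5 min; receptor phosphotyrosine was then detected by PY-20 capture ELISA.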

T1 sequence (P10721 26-976): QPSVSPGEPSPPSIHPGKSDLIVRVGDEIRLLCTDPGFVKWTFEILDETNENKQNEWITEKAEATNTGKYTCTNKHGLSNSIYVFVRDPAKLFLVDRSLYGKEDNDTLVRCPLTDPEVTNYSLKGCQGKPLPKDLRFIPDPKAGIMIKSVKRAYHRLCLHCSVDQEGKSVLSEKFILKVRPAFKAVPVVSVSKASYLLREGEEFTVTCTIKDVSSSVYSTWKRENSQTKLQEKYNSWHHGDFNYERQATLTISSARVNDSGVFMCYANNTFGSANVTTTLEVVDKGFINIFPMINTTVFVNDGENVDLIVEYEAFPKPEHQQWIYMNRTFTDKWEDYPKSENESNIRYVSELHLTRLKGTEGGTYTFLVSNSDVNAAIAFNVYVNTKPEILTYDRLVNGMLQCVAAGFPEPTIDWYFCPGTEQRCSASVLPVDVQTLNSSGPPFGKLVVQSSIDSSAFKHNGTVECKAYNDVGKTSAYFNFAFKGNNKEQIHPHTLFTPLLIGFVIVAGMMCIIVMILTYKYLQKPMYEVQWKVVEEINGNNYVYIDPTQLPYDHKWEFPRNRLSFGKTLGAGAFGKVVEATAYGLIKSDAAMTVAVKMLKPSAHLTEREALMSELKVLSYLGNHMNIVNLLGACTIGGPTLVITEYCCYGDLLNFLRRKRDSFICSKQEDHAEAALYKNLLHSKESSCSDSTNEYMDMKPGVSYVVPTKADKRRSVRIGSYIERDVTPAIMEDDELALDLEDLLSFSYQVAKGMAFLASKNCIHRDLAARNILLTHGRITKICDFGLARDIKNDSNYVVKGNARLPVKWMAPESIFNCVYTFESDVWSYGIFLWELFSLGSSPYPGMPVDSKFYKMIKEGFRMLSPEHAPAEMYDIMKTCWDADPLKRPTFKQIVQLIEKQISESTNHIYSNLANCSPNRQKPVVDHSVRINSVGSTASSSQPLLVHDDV
T2 sequence (P16234 24-1089): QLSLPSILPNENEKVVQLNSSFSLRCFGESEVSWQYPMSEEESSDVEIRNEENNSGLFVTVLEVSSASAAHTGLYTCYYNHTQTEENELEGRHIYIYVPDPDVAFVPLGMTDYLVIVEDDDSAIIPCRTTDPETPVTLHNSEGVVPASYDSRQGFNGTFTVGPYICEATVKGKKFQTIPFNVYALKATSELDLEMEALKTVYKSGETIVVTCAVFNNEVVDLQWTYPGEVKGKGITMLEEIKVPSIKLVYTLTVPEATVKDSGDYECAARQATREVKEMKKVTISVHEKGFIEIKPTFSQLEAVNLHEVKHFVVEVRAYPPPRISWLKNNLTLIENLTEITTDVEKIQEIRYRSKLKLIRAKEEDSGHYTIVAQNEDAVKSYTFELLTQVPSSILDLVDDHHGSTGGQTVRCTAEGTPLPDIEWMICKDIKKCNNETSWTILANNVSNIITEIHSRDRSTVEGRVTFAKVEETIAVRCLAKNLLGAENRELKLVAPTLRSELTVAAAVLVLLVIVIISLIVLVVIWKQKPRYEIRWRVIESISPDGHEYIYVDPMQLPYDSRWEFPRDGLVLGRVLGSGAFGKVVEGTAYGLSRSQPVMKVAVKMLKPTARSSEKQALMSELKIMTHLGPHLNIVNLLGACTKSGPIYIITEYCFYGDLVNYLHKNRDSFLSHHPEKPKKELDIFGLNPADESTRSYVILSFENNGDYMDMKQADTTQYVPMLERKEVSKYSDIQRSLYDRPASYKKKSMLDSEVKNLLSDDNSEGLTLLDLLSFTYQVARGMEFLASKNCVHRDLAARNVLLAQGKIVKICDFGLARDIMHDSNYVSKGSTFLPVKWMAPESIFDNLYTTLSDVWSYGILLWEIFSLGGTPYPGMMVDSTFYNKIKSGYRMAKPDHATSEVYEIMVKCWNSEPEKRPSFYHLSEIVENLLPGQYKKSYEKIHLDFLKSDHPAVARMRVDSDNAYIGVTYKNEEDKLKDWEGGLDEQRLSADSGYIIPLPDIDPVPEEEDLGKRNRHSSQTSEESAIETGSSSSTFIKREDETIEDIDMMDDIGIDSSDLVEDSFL

As for `COc1cc2nccc(Oc3cc(C)c(NC(=O)OCCCOc4ccccc4OC)cc3C)c2cc1OC` [Example 159, 3-(2-Methoxyphenoxy)propyl N-{4-[(6,7-dimethoxy-4-quinolyl)oxy]-2,5-dimethylphenyl}carbamate], the results for the half-maximal inhibitory concentration (IC50) in experiment [1] and in experiment [2] were 147 nM and 52 nM, respectively.

With `COc1cc2ncnc(Oc3ccc(NC(=O)OCCCOc4ccccc4OC)cc3)c2cc1OC` [Example 160, 3-(2-Methoxyphenoxy)propyl N-{4-[(6,7-dimethoxy-4-quinazolinyl)oxy]phenyl}carbamate], the IC50 (in general, the midpoint of a concentration-inhibition curve) is 52 nM in experiment [1] and 16 nM in experiment [2].

For `COc1cccc(OCCCOC(=O)Nc2ccc(Oc3ccnc4cc(OC)c(OC)cc34)cc2)c1` [Example 161, 3-(3-Methoxyphenoxy)propyl N-{4-[(6,7-dimethoxy-4-quinolyl)oxy]phenyl}carbamate], the values for the concentration for half-maximal inhibition (IC50) in experiment [1] and in experiment [2] were 178 nM and under 10 nM, respectively.

As for `COc1cccc(OCCCOC(=O)Nc2ccc(Oc3ccnc4cc(OC)c(OC)cc34)c(C)c2C)c1` [Example 162, 3-(3-Methoxyphenoxy)propyl N-{4-[(6,7-dimethoxy-4-quinolyl)oxy]-2,3-dimethylphenyl}carbamate], the results for the IC50 in experiment [1] and in experiment [2] were 162 nM and 16 nM, respectively.

As for `COc1cccc(OCCCOC(=O)Nc2cc(C)c(Oc3ccnc4cc(OC)c(OC)cc34)cc2C)c1` [Example 163, 3-(3-Methoxyphenoxy)propyl N-{4-[(6,7-dimethoxy-4-quinolyl)oxy]-2,5-dimethylphenyl}carbamate], the IC50 is 185 nM in experiment [1] and under 10 nM in experiment [2].

Take `COc1cccc(OCCCOC(=O)Nc2ccc(Oc3ncnc4cc(OC)c(OC)cc34)cc2)c1` [Example 164, 3-(3-Methoxyphenoxy)propyl N-{4-[(6,7-dimethoxy-4-quinazolinyl)oxy]phenyl}carbamate]: the IC50 in experiment [1] turned out to be 50 nM; in experiment [2], 12 nM.

Consider `COc1cc2nccc(Oc3ccc(NC(=O)OCCSc4cc(C)ccc4C)cc3)c2cc1OC` [Example 165, 2-[(2,5-dimethylphenyl)sulfanyl]ethyl N-{4-[(6,7-dimethoxy-4-quinolyl)oxy]phenyl}carbamate], for which the half-maximal inhibitory concentration (IC50) in experiment [1] turned out to be 149 nM; in experiment [2], 49 nM.

Consider `COc1cc2nccc(Oc3ccc(NC(=O)OCCSc4cc(C)ccc4C)c(C)c3C)c2cc1OC` [Example 166, 2-[(2,5-Dimethylphenyl)sulfanyl]ethyl N-{4-[(6,7-dimethoxy-4-quinolyl)oxy]-2,3-dimethylphenyl}carbamate], for which the 50% inhibitory concentration (IC50) in experiment [1] was 145 nM; in experiment [2] it was 34 nM.

Take `COc1cc2nccc(Oc3cc(C)c(NC(=O)OCCSc4cc(C)ccc4C)cc3C)c2cc1OC` [Example 167, 2-[(2,5-Dimethylphenyl)sulfanyl]ethyl N-{4-[(6,7-Dimethoxy-4-quinolyl)oxy]-2,5-dimethylphenyl}carbamate]: the IC50 came out at 370 nM in experiment [1] and 45 nM in experiment [2].

As to `COc1cc2ncnc(Oc3ccc(NC(=O)OCCSc4cc(C)ccc4C)cc3)c2cc1OC` [Example 168, 2-[(2,5-Dimethylphenyl)sulfanyl]ethyl N-{4-[(6,7-dimethoxy-4-quinazolinyl)oxy]phenyl}carbamate], the values for the IC50 in experiment [1] and in experiment [2] were 52 nM and 15 nM, respectively.

On to `COc1cc2nccc(Oc3ccc(NC(=O)OCCCSc4cc(C)ccc4C)cc3)c2cc1OC` [Example 169, 3-[(2,5-Dimethylphenyl)sulfanyl)propyl N-{4-[(6,7-dimethoxy-4-quinolyl)oxy]phenyl}carbamate], for which the values for the IC50 in experiment [1] and in experiment [2] were 31 nM and under 10 nM, respectively.

For the compound `COc1cc2nccc(Oc3ccc(NC(=O)OCCCSc4cc(C)ccc4C)c(C)c3C)c2cc1OC` [Example 170, 3-[(2,5-Dimethylphenyl)sulfanyl]propyl N-{4-[(6,7-dimethoxy-4-quinolyl)oxy]-2,3-dimethylphenyl}carbamate], the values for the IC50 in experiment [1] and in experiment [2] were 34 nM and under 10 nM, respectively.
